# Experimental data published in patent US9084779B2, “Conjugates of nitroimidazoles and their use as chemotherapeutic agents” (The Johns Hopkins University, priority 2011, dated 2015).
# Key:
# [1] = system: Hep3B human hepatocellular carcinoma cells; assay: MTT cell viability assay, 3 days; type: cell-based; details: Homo sapiens, Hep3B, 72 h, normoxic conditions, 1% DMSO
# Procedure: (§1) Additional cell culture, drug treatment and cell viability assays. HT29 human colorectal carcinoma cells, 786-0 human renal adenocarcinoma cells and Hep3B human hepatocellular carcinoma cells were obtained from ATCC and maintained in culture according to their recommendations. […] After the treatment period viability of the cells was determined with the MTT cell viability assay and dose response curves were generated using the calculated values of the percentage viable cells relative to the vehicle control.
# [2] = system: 786-0 human renal adenocarcinoma cells; assay: MTT cell viability assay, 3 days; type: cell-based; details: Homo sapiens, 786-0, 72 h, normoxic conditions, 1% DMSO
# Procedure: as §1
# [3] = system: HT29 human colorectal carcinoma cells; assay: MTT cell viability assay, 3 days; type: cell-based; details: Homo sapiens, HT-29, 72 h, normoxic conditions, 1% DMSO
# Procedure: as §1
# [4] = system: HT29 human colorectal carcinoma cells; assay: Cell viability by plating efficiency (colony formation after replating); type: cell-based; details: 40 μM, 48 h, diluted 10,000 fold and replated, colonies stained eight days later
# Procedure: FIG. 6 depicts the plating efficiency of HT29 human colorectal carcinoma cells after treatment with DMSO, 40μ M3n and 40μ M3N-PEG-2NI. HT29 cells were treated for 48 h with 40 μM M3N, 40 μM M3N-PEG-2NI or the DMSO vehicle. At the end of the treatment period, the cells were diluted 10,000 fold and replated. Eight days later colonies were stained with methylene blue.
# For the further assessment of cell viability by plating efficiency, cells (2×10^6 cells/100 mm dish) from the human colorectal carcinoma cell line HT29 were treated for 48 hours with 40 μM M3N, 40 μM M3N-PEG-2NI or the DMSO vehicle. At the end of the treatment period, the cells from each dish were released by trypsinization, diluted 10,000 fold and replated into new 100 mm dishes. Eight days later colonies were stained with 0.25% methylene blue in 50% ethanol
# [5] = system: Hep3B human hepatocellular carcinoma cells; assay: MTS tetrazolium cell proliferation assay, 72-h exposure; type: cell-based; details: normoxic (21% O2), read-out: IC50 Normoxic (N)
# Excerpt: Anti-proliferative assay. The human hepatocellular carcinoma cell line Hep3B was purchased from American Type culture Collection (ATCC, Manassas, Va.). Dulbecco's Modified Eagle Medium (DMEM) and penicillin/streptomycin (P/S) were obtained from GIBCO Invitrogen. Fetal Bovine serum (FBS) was obtained from Thermo Scientific Hyclone. Dimethyl sulfoxide (DMSO-Hybri-Max) was purchased from Sigma-Aldrich Co. and the CellTiter 96 AQueous One Solution Cell Proliferation Assay (MTS) was acquired from Promega Corp. Hep3B cells were maintained in DMEM supplemented with 10% FBS and 1× P/S solution. Cultures were incubated at 37° C. in a 5% CO2 atmosphere with 99% humidity. Stock solutions of test compounds were prepared in DMSO for use in the cell culture viability assays.
# MTS tetrazolium cell proliferation assay. The viability of Hep3B cells exposed to the synthesized compounds was determined by the MTS assay. Briefly, Hep3B cells were plated in 96-well plates at a density of 3.0×10^3 cells/well and incubated for 24-h before treatment. At the initiation of treatment, the growth media was replaced with 200 μL of media containing increasing concentrations of the test compounds in triplicate wells. The final DMSO concentration in the media was 1.0% including the media added to the control wells minus the test compound. After a 72-hour incubation, 40 μL of MTS solution was added to each well and the plates were incubated for an additional 3.0 hours. The plates were then read at 490 nm on a Biotek Instruments PowerWave 200 microplate reader. For each experiment the percent growth inhibition relative to the control (no drug addition) was calculated and a dose inhibition curve was generated. The concentration of drug required to inhibit cell growth by 50% (IC50) compared to the control cells was then determined by non-linear regression using PSI-Plot software (Poly Software International).
# Antiproliferative activity. The anti-cancer activities of the parent compounds 3 and 8 and the conjugated compounds 7a-d and 10a-d were tested against Hep3B human hepatocellular carcinoma cells in culture.
# [6] = system: orthotopic HT29 tumor implants; assay: Orthotopic xenograft of HT29 human colorectal carcinoma in nude mice, systemic treatment; type: in vivo, nude (Nu/Nu) mice
# Procedure: Orthotopic Xenograft implantation of HT29 human colorectal carcinoma cells into nude mice. HT29 cells were grown in culture in McCoy's medium until sub-confluent. A single cell suspension of HT29 was then prepared in HBSS and 1×10^7 cells were injected subcutaneously into the flanks of four male T-cell deficient nude (Nu/Nu) mice. Subcutaneous tumors were allowed to grow for 14 days before harvesting and preparation for orthotopic implantation. The mice were euthanized and the subcutaneous tumors were removed using sterile technique. The tumors were divided into 3×3 mm pieces that were kept in phosphate buffered saline (PBS) on ice. T-cell deficient nude (NU/NU) mice (6 male, 5 female) were anesthetized by injecting 0.5 to 1.0 mL of Avertin (20 mM) intraperitoneally in PBS. The abdomen was prepped with 70% ethanol three times and a small nick was made in the skin. The abdominal wall musculature was grasped, lifted, and entered with a single blade of scissors. The single blade of the scissors was used to push the contents of the abdominal cavity away and the incision was extended 2-3 cm. The cecum was identified by its blind ending pouch and exteriorized. The cecum was isolated from the rest of the mouse using pre-cut, sterile gauze and kept moist with warm PBS. A figure of 8 stitches was placed onto the cecum using a 7-0 sized suture and the cecal wall was slightly damaged at the site where the HT29 tumor piece is to be implanted using forceps. An HT29 tumor piece was positioned on the cecum under the stitch and the stitch was then tied. The cecum was returned to the abdominal cavity. Using staples, the mouse abdominal wall musculature and skin was closed and the mouse was allowed to recover from anesthesia.
# Systemic treatment with M3N-PEG-2NI (compound 7d). A 40 mM stock solution of M3N-PEG-2NI was prepared by dissolving 0.14 g of M3N-PEG-2NI (MW=616.3 g/mol) in 5.7 mL of CPE. Each day of treatment, 4 T-cell deficient nude mice (2 male, 2 female) bearing orthotopic HT29 tumor implants received 0.1 ml of 20 mM M3N-PEG-2NI via I.V. or I.P. injections. The remaining 4 T-cell deficient nude mice (2 male, 2 female) received 0.1 mL of CPE (FIG. 7) Body weight of mice was monitored every week, until significant body weight change occurred. Then, body weight was measured every other day until day 24. All 8 mice were euthanized on day 24. The mice were dissected and their major organs collected. Special attention was taken in examination of livers since liver metastasis is common in orthotopic colon cancer models.
# [7] = 0.1 ml of 20 mM I.V. or I.P., three weeks, euthanized day 24, listed as M3N-PEG-2NI
smiles,measurement,setting,value
"COc1ccc(C[C@H](C)[C@H](C)Cc2ccc(OC)c(OCCOCCOCCOCCn3ccnc3[N+](=O)[O-])c2)cc1OC (racemic) [Compound 7d, (±)-(2R,3S)-4-(3,4-Dimethoxyphenyl)-1-[4-methoxy-3-[12-(2-nitro-1H-imidazol-1-yl)-1,4,7,10-tetraoxadodecanyl]phenyl]-2,3-dimethylbutane]",IC50,[1],4 µM
same,IC50,[2],10 to 14 µM
same,IC50,[3],4 to 6 µM
same,Ability of HT29 cells to replicate after treatment (plating efficiency),[4],unable to replicate
same,IC50,[5],12.6 ± 4.9 µM
same,Mean Primary Tumor and Mass,"[6]; 0.1 ml of 20 mM I.V. or I.P., three weeks, euthanized day 24, listed as M3N-PEG-2N",300 ± 140 mg
same,Mean Abdominal Cavity Tumor Mass,[6]; [7],75 ± 50 mg
same,Mean Primary Tumor and Mass,[6]; [7],300 ± 140 mg
same,Body Weight Increase,"[6]; 0.1 ml of 20 mM I.V. or I.P., to day 24",11.3%
same,Mean Total Tumor Load,"[6]; primary tumor plus total tumor mass, 0.1 ml of 20 mM I.V. or I.P., day 24, listed as M3N-PEG-2NI",375 ± 150 mg
same,Mice that developed liver metastasis,"[6]; treated group of 4 mice, day 24",1 of the 4
same,Peritoneal tumors,"[6]; treated group, mice 5 (female) and 7 (male)",no peritoneal tumors
same,Peritoneal tumors,"[6]; treated group, mice 6 (female) and 8 (male)","a single, small peritoneal tumor"
same,"Tumor masses surrounding the kidneys and ovaries, weight each","[6]; treated group, mouse 5",< 100 mg
same,"Tumor surrounding the ovaries, weight","[6]; treated group, mouse 6",< 100 mg
